Source: patent EP0311473A1, “Fluorinated derivate of amino acids, useful as tensioactive or cotensioactive agents, and preparations for biomedical use containing these derivatives” (AP[…] […] TE[…] ATTA, priority 1987, dated 1989)

What was measured:
[1] = Surface tension of aqueous solutions of the fluorinated derivatives; assay type: physicochemical; conditions: solution in water, 20°C
Method: (§1) Pour illustrer le caractère fortement tensioactif des dérivés fluorés de l'invention, on a effectué des mesures à 20°C de la tension superficielle de solutions dans l'eau de ces dérivés, ainsi que de la tension interfaciale entre ces solutions et un composé perfluoré constitué par la perfluorodécaline.
(§2) On précise que dans les conditions de ces mesures: • - la tension superficielle de l'eau à 20°C est de 73,0± 0,2mN.m-^1, et • - la tension interfaciale entre l'eau et la perfluorodécaline à 20°C est de 56,0 ± 0,2 mN.m-^1.

[2] = Interfacial tension between aqueous solutions and perfluorodecalin; assay type: physicochemical; conditions: solution in water vs perfluorodécaline, 20°C
Method: as §1, §2

[3] = test system: cultures cellulaires lymphoblastoïdes de la souche Namalva; assay: Biocompatibility on lymphoblastoid cell cultures (growth, multiplication, subculturing); assay type: cell-based
Excerpt: Pour tester la biocompatibilité des dérivés de l'invention, on a vérifié que ces dérivés n'avaient pas d'effet sur la croissance, la multiplication et le repiquage de cultures cellulaires lymphoblastoïdes de la souche Namalva.

[4] = test system: globules rouges humains; assay: Haemolysis test on human red blood cells; assay type: cell-based
[5] = test system: souris; assay: Acute toxicity after intravenous administration to mice; assay type: in vivo
Method: Enfin, on a vérifié que les dérivés de l'invention ne présentaient pas de toxicité aigüe. Ainsi, l'administration intraveineuse à des souris, de 20 ml/kg des solutions à : • - 100 mg/I de (F-butyl-2')éthylbétaïne (ex. 4), • - 100 mg/l de (F-hexyl-2')éthylbétaïne (ex. 5), • - 100 mg/I de (F-octyl-2')éthylbétaïne (ex. 6), et • - 500 mg/I de (F-octyl-3"propylcarbamoyl)-4'butylbétaïne (ex. 14), dans de l'eau à 9 pour mille de NaCl, a été bien tolérée.

[6] = solution 1 g/l in water with 9 per mille NaCl
[7] = solution 5 g/l in water with 9 per mille NaCl
[8] = 20 ml/kg of a 100 mg/l solution in water with 9 per mille NaCl
[9] = solution 500 mg/l in water with 9 per mille NaCl

| SMILES | Tension superficielle ([1]; concentration 1 g/l) | Tension interfaciale/ F-décaline ([2]; concentration 1 g/l) | Tension superficielle ([1]; concentration 0,1 g/l) | Tension interfaciale/ F-décaline ([2]; concentration 0,1 g/l) | croissance, multiplication et repiquage des cultures [3, 6] | hémolyse des globules rouges humains [4, 7] | toxicité aigüe (tolérance) [5, 8] | Tension superficielle ([1]; concentration 0,01 g/l) | Tension interfaciale/ F-décaline ([2]; concentration 0,01 g/l) | hémolyse des globules rouges humains [4, 6] | croissance, multiplication et repiquage des cultures [3, 9] | hémolyse des globules rouges humains [4, 9] | toxicité aigüe (tolérance) ([5]; 20 ml/kg of a 500 mg/l solution in water with 9 per mille NaCl) |
| --- | --- | --- | --- | --- | --- | --- | --- | --- | --- | --- | --- | --- | --- |
| C[C@H](CCC(=O)NC(CCC(F)(F)C(F)(F)C(F)(F)C(F)(F)C(F)(F)C(F)(F)F)C(=O)O)[C@H]1CC[C@H]2[C@@H]3[C@H](O)C[C@@H]4C[C@H](O)CC[C@]4(C)[C@H]3C[C@H](O)[C@]12C (some centres unmarked) | 28,5 mN.m^-1 | 4,7 mN.m^-1 | – | – | – | – | – | – | – | – | – | – | – |
| C[N+](C)(C)C(CCC(F)(F)C(F)(F)C(F)(F)C(F)(F)F)C(=O)[O-] (centres unmarked) [(F-butyl-2')éthyl bétaïne de l'Ex. 4, F-(butyl-2')éthyl bétaïne] | 49,3 mN.m^-1 | 34,5 mN.m^-1 | 68,4 mN.m^-1 | 48,0 mN.m^-1 | ne perturbent pas la croissance, la multiplication et le repiquage de ces cultures | ne provoquent pas l'hémolyse | bien tolérée | – | – | – | – | – | – |
| C[N+](C)(C)C(CCC(F)(F)C(F)(F)C(F)(F)C(F)(F)C(F)(F)C(F)(F)F)C(=O)[O-] (centres unmarked) [(F-hexyl-2')éthyl bétaïne de l'Ex. 5, (F-hexyl-2')éthyl bétaïne] | 20,0 mN.m^-1 | 3,1 mN.m^-1 | 39,3 mN.m^-1 | 22,4 mN.m^-1 | ne perturbent pas la croissance, la multiplication et le repiquage de ces cultures | ne provoquent pas l'hémolyse | bien tolérée | – | – | – | – | – | – |
| C[N+](C)(C)C(CCC(F)(F)C(F)(F)C(F)(F)C(F)(F)C(F)(F)C(F)(F)C(F)(F)C(F)(F)F)C(=O)[O-] (centres unmarked) [(F-octyl-2')éthyl bétaïne de l'Ex. 6, (F-octyl-2')éthyl bétaïne] | 19,1 mN.m^-1 | 2,8 mN.m^-1 | 19,9 mN.m^-1 | 3,4 mN.m^-1 | ne perturbent pas la croissance, la multiplication et le repiquage de ces cultures | – | bien tolérée | 25,6 mN.m^-1 | 7,5 mN.m^-1 | ne provoquent pas l'hémolyse | – | – | – |
| O=C(O)CNC(=O)CCC(F)(F)C(F)(F)C(F)(F)C(F)(F)C(F)(F)C(F)(F)C(F)(F)C(F)(F)F [(F-octyl-3' propylcarbamoyl) éthanoate de sodium] | 21,6 mN.m^-1 | 7,1 mN.m^-1 | 38,8 mN.m^-1 | 25,2 mN.m^-1 | – | – | – | 43,2 mN.m^-1 | 41,3 mN.m^-1 | – | – | – | – |
| C[N+](C)(C)C(CCCCNC(=O)CCC(F)(F)C(F)(F)C(F)(F)C(F)(F)C(F)(F)C(F)(F)C(F)(F)C(F)(F)F)C(=O)[O-] (centres unmarked) [(triméthylammonio)-2 [(F-octyl)-3' propanoylamino] -6 hexanoate] | – | – | 19,7 mN.m^-1 | 3,6 mN.m^-1 | – | – | – | 22,8 mN.m^-1 | 5,2 mN.m^-1 | – | ne perturbent pas la croissance, la multiplication et le repiquage de ces cultures | ne provoquent pas l'hémolyse | bien tolérée |
